Reference: ChEMBL document CHEMBL6074684, “Structure-activity relationship study of novel evodiamine amino acid conjugates with potent anti-colorectal cancer efficacy” (Eur J Med Chem, 2025)
Calls of active or inactive are those of the source. The calls are words filed in the database; no cut-off is given here.

Columns and labels:
[1] = Stability of compound in rat plasma assessed as half-life; assay type: ADME, cell-free
LoVo [2] = experiment: Cell cycle arrest in human LoVo cells assessed as accumulation of cells at G1 phase cells at 90 nM incubated for 24 hrs by […]PI staining based flow cytometric analysis (reference value: 29.69 %); assay type: functional
Mitochondrial membrane [3] = experiment: Induction of mitochondrial membrane potential loss in human RKO cells assessed as TMRE positive cells at 90 nM incubated for 24 hrs by TMRE staining based flow cytometric analysis (reference value: 95.54 %); assay type: cell membranes
LoVo [4] = experiment: Antiproliferative activity against human LoVo cells assessed as reduction in cell viability measured after 24 hrs; assay type: functional, cell-based; settings: dose 40-200 nmol/L
LoVo [5] = experiment: Cell cycle arrest in human LoVo cells assessed as accumulation of cells at G2 phase cells at 30 nM incubated for 24 hrs by […]PI staining based flow cytometric analysis (reference value: 14.84 %); assay type: functional
[6] = Apparent clearance during terminal phase in male Sprague-Dawley rat at 50 mg/kg, ip measured after 24 hrs by LC-MS/MS analysis; assay type: ADME, organism-based; settings: in vivo, read-out: CLz/F (converted)
RKO [7] = experiment: Induction of morphological changes in human RKO cells assessed as appearance of condensed morphology incubated for 24 hrs by Giemsa staining based microscopic analysis; assay type: functional, cell-based; settings: dose 10-90 nM
[8] = Stability of compound at pH 5.5 assessed as residual rate measured after 2 days; assay type: physicochemical; settings: buffer, time 2 day, read-out: Stability
[9] = Chemical stability of compound in McCoy's 5A cell culture medium containing 1 % DMSO assessed as retention time at 100 uM incubated for 24 hrs by HPLC analysis; assay type: physicochemical
RKO [10] = experiment: Cell cycle arrest in human RKO cells assessed as accumulation of cells at G1 phase at 90 nM incubated for 24 hrs by […]PI staining based flow cytometric analysis (reference value: 35.29 %); assay type: functional
Huh-7 = experiment: Antiproliferative activity against human Huh-7 cells assessed as inhibition of cell growth incubated for 72 hrs by MTT assay; assay type: functional, cell-based; settings: Huh-7, 72 h
RKO [11] = experiment: Antiproliferative activity against human RKO cells assessed as reduction in cell viability measured after 24 hrs; assay type: functional, cell-based; settings: dose 40-200 nmol/L
[12] = Chemical stability of compound in McCoy's 5A cell culture medium containing 1 % DMSO assessed as (S)-3-fluoro-14-(3-fluorophenyl)-10-hydroxy-8,13,13b,14-tetrahydroindolo[2',3':3,4]pyrido[2,1-b]quinazolin-5(7H)-one release by measuring retention time at 100 uM incubated for 24 hrs by HPLC analysis; assay type: physicochemical
HT-29 [13] = experiment: Antiproliferative activity against human HT-29 cells assessed as inhibition of cell growth incubated for 72 hrs by MTT assay; assay type: functional, cell-based; settings: HT-29, 72 h
SGC-7901 = experiment: Antiproliferative activity against human SGC-7901 cells assessed as inhibition of cell growth incubated for 72 hrs by MTT assay; assay type: functional, cell-based; settings: SGC-7901, 72 h
MGC-803 = experiment: Antiproliferative activity against human MGC-803 cells assessed as inhibition of cell growth incubated for 72 hrs by MTT assay; assay type: functional, cell-based; settings: MGC-803, 72 h
Mitochondrial membrane [14] = experiment: Induction of mitochondrial membrane potential loss in human LoVo cells assessed as TMRE positive cells at 90 nM incubated for 24 hrs by TMRE staining based flow cytometric analysis (reference value: 95.93 %); assay type: cell membranes
RKO [15] = experiment: Cell cycle arrest in human RKO cells assessed as accumulation of cells at G2 phase at 90 nM incubated for 24 hrs by […]PI staining based flow cytometric analysis (reference value: 20.07 %); assay type: functional
[16] = Cmax in male Sprague-Dawley rat at 50 mg/kg, ip measured after 24 hrs by LC-MS/MS analysis; assay type: ADME, organism-based; settings: in vivo
LoVo [17] = experiment: Induction of morphological changes in human LoVo cells assessed as appearance of contracted nucleus incubated for 24 hrs by Giemsa staining based microscopic analysis; assay type: functional, cell-based; settings: dose 10-90 nM
HGC-27 = experiment: Antiproliferative activity against human HGC-27 cells assessed as inhibition of cell growth incubated for 72 hrs by MTT assay; assay type: functional, cell-based; settings: HGC-27, 72 h
LoVo [18] = experiment: Induction of morphological changes in human LoVo cells assessed as appearance of condensed morphology incubated for 24 hrs by Giemsa staining based microscopic analysis; assay type: functional, cell-based; settings: dose 10-90 nM
RKO [19] = experiment: Cell cycle arrest in human RKO cells assessed as accumulation of cells at G2 phase at 30 nM incubated for 24 hrs by […]PI staining based flow cytometric analysis (reference value: 20.07 %); assay type: functional
LoVo [20] = experiment: Antitumor activity against human LoVo cells xenografted in male BALB/c nude mouse assessed as tumor growth inhibition at 40 mg/kg, ip administered once daily for 14 days relative to control; assay type: functional; settings: 336 h, time 14 day, read-out: TGI
LoVo [21] = experiment: Cell cycle arrest in human LoVo cells assessed as accumulation of cells at G1 phase cells at 10 nM incubated for 24 hrs by […]PI staining based flow cytometric analysis (reference value: 29.69 %); assay type: functional
[22] = Tmax in male Sprague-Dawley rat at 50 mg/kg, ip measured after 24 hrs by LC-MS/MS analysis; assay type: ADME, organism-based; settings: in vivo
LoVo [23] = experiment: Cell cycle arrest in human LoVo cells assessed as accumulation of cells at S phase cells at 30 nM incubated for 24 hrs by […]PI staining based flow cytometric analysis (reference value: 54.99 %); assay type: functional
HT-29 [24] = experiment: Antitumor activity against human HT-29 cells xenografted in male BALB/c nude mouse assessed as tumor growth inhibition at 40 mg/kg, ip administered once daily for 14 days relative to control; assay type: functional; settings: HT-29, 336 h, time 14 day, read-out: TGI
RKO [25] = experiment: Cell cycle arrest in human RKO cells assessed as accumulation of cells at G2 phase at 10 nM incubated for 24 hrs by […]PI staining based flow cytometric analysis (reference value: 20.07 %); assay type: functional
LoVo [26] = experiment: Antiproliferative activity against human LoVo cells assessed as inhibition of cell growth incubated for 72 hrs by MTT assay; assay type: functional, cell-based
RKO [27] = experiment: Cell cycle arrest in human RKO cells assessed as accumulation of cells at S phase at 10 nM incubated for 24 hrs by […]PI staining based flow cytometric analysis (reference value: 43.36 %); assay type: functional
SK-HEP1 = experiment: Antiproliferative activity against human SK-HEP1 cells assessed as inhibition of cell growth incubated for 72 hrs by MTT assay; assay type: functional, cell-based; settings: SK-HEP1, 72 h
[28] = Toxicity in male BALB/c nude mouse xenografted with human LoVo cells assessed as body weight loss at 40 mg/kg, ip administered once daily for 14 days; assay type: organism-based; settings: in vivo, 336 h, time 14 day
[29] = Potency index, ratio of topotecan IC50 to test compound IC50 for antiproliferative activity against human LoVo cells assessed as inhibition of cell growth incubated for 72 hrs by MTT assay; assay type: functional
Mitochondrial membrane [30] = experiment: Induction of mitochondrial membrane potential loss in human LoVo cells assessed as decrease in TMRE positive cells at 10 to 90 nM incubated for 24 hrs by TMRE staining based flow cytometric analysis; assay type: cell membranes; settings: dose 10-90 nM
LoVo [31] = experiment: Cell cycle arrest in human LoVo cells assessed as accumulation of cells at G2 phase cells at 90 nM incubated for 24 hrs by […]PI staining based flow cytometric analysis (reference value: 14.84 %); assay type: functional

CC(C)(C)OC(=O)N[C@@H](CCC(N)=O)C(=O)Oc1ccc2[nH]c3c(c2c1)CCN1C(=O)c2cc(F)ccc2N(c2cccc(F)c2)[C@H]31
half-life [1]: 36 min | Activity (LoVo [2]): 25.84% | Activity (Mitochondrial membrane [3]): 85.1% | Activity (LoVo [4]): Dose-dependent-effect | Activity (LoVo [5]): 61.56% | CL/F [6]: 57.2 mL/min/kg | Activity (RKO [7]): Dose-dependent-effect | remaining at 48 h [8]: 60.1% | Retention_time [9]: 8.63 min | Activity (RKO [10]): 26.83% | IC50 (Huh-7): 370 nM | Activity (RKO [11]): Dose-dependent-effect | Retention_time [12]: 6.24 min | IC50 (HT-29 [13]): 130 nM | IC50 (SGC-7901): 490 nM | IC50 (MGC-803): 120 nM | Activity (Mitochondrial membrane [14]): 86.7% | Activity (RKO [15]): 21.72% | Cmax [16]: 7080 ng/mL | Activity (LoVo [17]): Dose-dependent-effect | IC50 (HGC-27): 110 nM | Activity (LoVo [18]): Dose-dependent-effect | Activity (RKO [19]): 56.8% | inhibition in vivo at 40 mg/kg (LoVo [20]): 82.5% | Activity (LoVo [21]): 26.62% | Tmax [22]: 60 min | Activity (LoVo [23]): 26.97% | inhibition in vivo at 40 mg/kg (HT-29 [24]): 70.1% | Activity (RKO [25]): 27.14% | IC50 (LoVo [26]): 70 nM | Activity (RKO [27]): 42.5% | IC50 (SK-HEP1): 870 nM | Activity [28]: Non-toxic | Ratio IC50 [29]: 3.4 | Activity (Mitochondrial membrane [30]): Active | Activity (LoVo [31]): 19.93%
